Laboratory results reported in patent US20060167106A1, “Compounds acting at the centrosome” (priority 2004, published 2006).
“Also recorded” adds a separate entry of the source. Non-standard residues stand in square brackets, D forms with d. Residues, ends and D or L forms follow the SMILES beside them. *: point of attachment. Nva = CCC[C@H](N)C(=O)O; Cbz = O=C(OCc1ccccc1)*

What was measured:
CHO-α-tubulin-YFP cells = experiment: α-tubulin-YFP localization in CHO-α-tubulin-YFP cells (fluorescence imaging); assay type: cell-based, Chinese hamster; conditions: for accumulation of α-tubulin-YFP in the nucleus: 8 hours post-treatment; for accumulation of tubulin at the centrosomes versus in the nucleus (overall statement): cells treated, concentration not given
Description: Wild-type Chinese Hamster Ovary cells (WT CHO) cells were maintained in Ham's F-12 medium supplemented with 10% fetal bovine serum (FBS; HyClone, Logan, Utah). Cells of low density (˜20%) growing on 2-well chambered cover-slips (Labtek (Campbell, Calif.) or Fisher Scientific) were transfected with a mammalian expression vector encoding α-tubulin-YFP (Clontech, Palo Alto, Calif.) with the use of FuGENE 6 (Roche Molecular Biochemicals, Indianapolis, Ind.), according to the manufacturer's instructions. Twenty-four hours after transfection, the cells were cultured in 400 μg/ml G418 (Invitrogen, Carlsbad, Calif.)-containing selection medium for 2 weeks. Living cells were examined using a fluorescent microscope for α-tubulin-YFP expression. Cells in single colonies containing microtubules labeled with α-tubulin-YFP were lifted and expanded in G418-containing medium. Expression of α-tubulin-YFP was confirmed by the presence of the tubulin-YFP labeled microtubule pattern identical to immunostained microtubule pattern of non-transfected cells, as well as by subjecting the cells to Western blot analysis using an anti-GFP antibody (Roche Molecular Biochemicals, Basel, Switzerland) and confirming the correct mass of the α-tubulin-YFP chimera protein. Expressed tubulin-YFP was detected as a single band in Western blots. The tubulin-YFP expressing cell lines (referred as CHO-α-tubulin-YFP cells) were used in the studies.
CHO-α-tubulin-YFP cells were cultured in 2-well chambered cover-slips (Labtek (Campbell, Calif.) or Fisher Scientific) 24 hours before treatment. For comparison of the centrosomal effects of treatment with Compound 1, Compound 1+Taxol, and Taxol, CHO-α-tubulin-YFP cells were treated with Compound 1, Compound 1+Taxol, Taxol, or equivalent concentrations of DMSO-containing media for various time periods before imaging. For comparison of the effects of Compound 1 and known proteasome inhibitors on centrosomes, the nucleus, and perinuclear regions, CHO-α-tubulin-YFP cells were treated with Compound 1, ALLN (Calbiochem, San Diego, Calif.), lactacystin (Calbiochem, San Diego, Calif.) or MG132 (Calbiochem, San Diego, Calif.), and imaged at various time points from 3 hours to 24 hours after treatment.
Tubulin-YFP fluorescence in living cells or fixed cells was captured using a standard filter for FITC and objectives of 20× or 60× magnification on a Nikon TE300 microscope with a Leica DC50 color digital camera (Leica, Bannockburn, Ill.) or a CoolSnap HQ Monochrome CCD camera (Photonetrics, Tucson, Ariz.). The Leica DC50 and CoolSnapHQ cameras were controlled with Leica DC50 software and MetaVue/MetaMorph software, respectively (Universal Imaging Corp, Downingtown, Pa.).
CHO-α-tubulin-YFP cells were cultured in 2-well chambered cover-slips (Labtek (Campbell, Calif.) or Fisher Scientific) 24 hours before treatment. For comparison of effects on the centrosome, nucleus, and perinuclear regions, cells were treated with Compound 1 and known proteasome inhibitors including ALLN, MG132, Lactacystin, MG115, clasto-Lactacystin β-Lactone (cLβL), and Epoxomicin (10 μM final concentration for all except ALLN, which was used at 100 μM final concentration) (proteasome inhibitors were from Calbiochem, San Diego, Calif.) and imaged at various time points up to 24 hours during treatment.
Tubulin-YFP fluorescence in living cells or fixed cells was captured using a standard filter for FITC and objectives of 20× or 60× magnification on the Nikon TE300 microscope/digital imaging system.

[1] = target: T1, bovine red blood cell 20S proteasome (Bos taurus, UniProt Q32KL2); experiment: 20S Proteasome Assay (in vitro, Suc-Leu-Val-Tyr-AMC); assay type: biochemical; conditions: isolated 20S proteasome
T1 construct: bovine red blood cell 20S proteasome; purchased Calbiochem; host or cells: purified from bovine red blood cells
Method: 190 μl of reaction buffer (500 mM HEPES, 10 nM EDTA, pH 7.6), containing 0.03% SDS was pre-incubated for 5 minutes at 37° C. in the presence of 0.2 μg of bovine red blood cell 20S proteasome (Calbiochem, San Diego, Calif.) for temperature equilibration. Subsequently, inhibitors or Compound 1 were added to the reaction mixture at a final DMSO concentration of 0.5%. The reaction was initiated by adding 10 μl of the peptide-AMC substrate (Calbiochem, San Diego, Calif.) to each well. The emitted fluorescence was then measured every third minute at 37° C. for 90 minutes by a fluorescence plate reader (FlexStation II, Molecular Devices, Sunnyvale, Calif.) at 460 nm (λex360 nm) wavelength.
The buffers and reagents for the assay were purchased from Calbiochem (20S Proteasome Assay Kit; Calbiochem, San Diego, Calif.). The principle of the assay is that the release of free AMC (7-Amino-4-methylcoumarin) following degradation of the substrate results in a fluorescent signal that is a measure of proteasome activity. The quantitative analysis of 20S proteasome activity was assayed as described.

26S proteasome = experiment: Proteasome-sensor cells (HEK-293, GFP chimera), fluorescence imaging; assay type: cell-based; conditions: HEK-293, 0.5 μM, 24 hours
Description: Specifically, the proteasome-sensor cells are HEK-293 cells stably transfected with a vector (proteasome-sensor vector) that encodes naturally-occurring reef coral Zoanthus sp. green fluorescent protein (GFP) fused to a specific degradation motif that targets the fusion protein for removal by the 26S proteasome. The background fluorescence observed in normal cells with active proteasomes is low. When proteasomes are inhibited, the fluorescent protein quickly accumulates. […] Millennium Pharmaceuticals, Inc., Cambridge, Mass.). […] Velcade (Millennium Pharmaceuticals Inc.) was used as a positive control in this assay (at 5 nM, 50 nM, 500 nM or 5 μM). Velcade stock solution was prepared according to the manufacturer's instructions. GFP fluorescence of the cells was imaged at various time points using a standard filter for FITC with the Nikon TE300 microscope/digital imaging system described herein.

## CCC[C@@H](C=O)NC(=O)[C@H](CC(C)C)NC(=O)[C@H](CC(C)C)NC(=O)OCc1ccccc1 [MG115] (Cbz-Leu-Leu-[Nva]-aldehyde)
CHO-α-tubulin-YFP cells; CHO cells, 10 μM
  accumulation of α-tubulin-YFP in the nucleus: caused the accumulation of YFP-tubulin in the nucleus
CHO-α-tubulin-YFP cells; CHO cells, 10 μM, listed as MG-115
  accumulation of α-tubulin-YFP in the nucleus: accumulation of α-tubulin-YFP in the nucleus
CHO-α-tubulin-YFP cells
  accumulation of tubulin at the centrosomes versus in the nucleus (overall statement): both accumulation of tubulin at the centrosomes and in the nucleus

## CN(NC(=O)CC(=O)NN(C)C(=S)c1ccccc1)C(=O)c1ccccc1 [Compound 3]
CHO-α-tubulin-YFP cells; CHO cells, 5 μM, 4 hours
  accumulation of tubulin-YFP at the centrosomes: lack of accumulation of tubulin-YFP at the centrosomes

## CC[C@H](C)[C@H](NC(=O)[C@H]([C@@H](C)CC)N(C)C(C)=O)C(=O)N[C@H](C(=O)N[C@@H](CC(C)C)C(=O)[C@@]1(C)CO1)[C@@H](C)O [Epoxomicin]
CHO-α-tubulin-YFP cells; CHO cells, 10 μM
  accumulation of α-tubulin-YFP in the nucleus: accumulation of α-tubulin-YFP in the nucleus; also recorded: caused the accumulation of YFP-tubulin in the nucleus
CHO-α-tubulin-YFP cells
  accumulation of tubulin at the centrosomes versus in the nucleus (overall statement): both accumulation of tubulin at the centrosomes and in the nucleus

## CC(=O)N[C@@H](CSC(=O)[C@]1([C@@H](O)C(C)C)NC(=O)[C@H](C)[C@@H]1O)C(=O)O [Lactacystin]
[1]
  proteasome inhibitory activity in vitro (overall statement): exhibited proteasome inhibitory activity
[1]; 5 nM
  proteasome activity in vitro: detectable decrease in proteasome activity
CHO-α-tubulin-YFP cells; CHO cells, 10 μM, 5 hours
  accumulation of α-tubulin-YFP at the centrosomes: accumulation of α-tubulin-YFP at the centrosomes and perinuclear regions
CHO-α-tubulin-YFP cells; CHO cells, 10 μM
  accumulation of α-tubulin-YFP in the nucleus: accumulation of α-tubulin-YFP in the nucleus; also recorded: caused the accumulation of YFP-tubulin in the nucleus
CHO-α-tubulin-YFP cells; CHO cells, 10 μM, 24 hours
  accumulation of tubulin-YFP at the centrosomes: accumulation of tubulin-YFP at the centrosomes
CHO-α-tubulin-YFP cells; CHO-tubulin-YFP cells, concentration and time not given
  accumulation of tubulin in the centrosomes (overall statement): caused accumulation of tubulin-YFP at the centrosomes and in the perinuclear region
CHO-α-tubulin-YFP cells
  accumulation of tubulin at the centrosomes versus in the nucleus (overall statement): both accumulation of tubulin at the centrosomes and in the nucleus

## CC(C)[C@H](O)[C@@]12NC(=O)[C@H](C)[C@@H]1OC2=O [clasto-Lactacystin β-Lactone]
CHO-α-tubulin-YFP cells; CHO cells, 10 μM
  accumulation of α-tubulin-YFP in the nucleus: accumulation of α-tubulin-YFP in the nucleus; also recorded: caused the accumulation of YFP-tubulin in the nucleus
CHO-α-tubulin-YFP cells
  accumulation of tubulin at the centrosomes versus in the nucleus (overall statement): both accumulation of tubulin at the centrosomes and in the nucleus

## CN(NC(=O)CC(=O)NN(C)C(=S)c1ccccc1)C(=S)c1ccccc1 [Compound 2]
26S proteasome
  accumulation of proteasome-sensor protein in cells: accumulation of proteasome-sensor protein in cells
[1]; 50 μM
  proteasome inhibitory activity in vitro: neither Compound 1 nor its salt form, Compound 2, displayed significant proteasome inhibitory activity

## CC[C@]1(O)C[C@H]2CN(CCc3c([nH]c4ccccc34)[C@@](C(=O)OC)(c3cc4c(cc3OC)N(C=O)[C@H]3[C@@](O)(C(=O)OC)[C@H](OC(C)=O)[C@]5(CC)C=CCN6CC[C@]43[C@@H]65)C2)C1 [Vincristine]
CHO-α-tubulin-YFP cells; CHO cells, 1 μM, 24 hours
  accumulation of tubulin-YFP at the centrosomes: lack of accumulation of tubulin-YFP at the centrosomes

## Cc1cc(NC(=O)C(=O)c2cc(Cc3ccc(C#N)cc3)n3ccccc23)sn1 [Compound 4]
CHO-α-tubulin-YFP cells; CHO cells, 10 μM, 24 hours
  accumulation of tubulin-YFP at the centrosomes: lack of accumulation of tubulin-YFP at the centrosomes

## C/C1=C/C[C@@H](/C(C)=C/c2csc(C)n2)OC(=O)C[C@H](O)C(C)(C)C(=O)[C@H](C)[C@@H](O)[C@@H](C)CCC1 [Epothilone D]
CHO-α-tubulin-YFP cells; CHO cells, 10 μM, 24 hours
  accumulation of tubulin-YFP at the centrosomes: lack of accumulation of tubulin-YFP at the centrosomes
